{
  "source": "patent US20170318812A1",
  "about": "“Plant and Crop Growth Regulating/Biostimulant Formulations and Methods of Use” (Arysta Lifescience North America, LLC, priority 2014, published 2017)",
  "key": {"ZEAMX Zea mays (Corn)": {"system": "ZEAMX Zea mays (Corn)", "assay": "Ipfencarbazone biostimulant effect, early post emergence foliar application, greenhouse pots, plant height: corn", "type": "in vivo", "settings": "ZEAMX AG7098PRO2", "source_text": "(§1) The original objective of this Example was to evaluate the herbicidal effect of ipfencarbazone when applied as a post emergent treatment to a range of selected crops and weeds. Unexpectedly, crop plant growth stimulation was observed. The actual species of weeds and crops are listed in the summary data tabulated below and in FIGS. 1-13. By convention each plant species has a Bayer code (5-letter name) with the scientific name for the plant referenced in FIGS. 1-13. In each Figure, each tray contains the same configuration of weeds and/or crops. In each Figure there is one replication of each treatment (six treatments in total). The top three photographs in each Figure show the Bayer Codes and bottom three photographs are aligned with the top three facilitating viewing of the same plant species. Throughout the Examples various abbreviations as conventional shorthand notation and will be appreciated by those skilled in the art. Some exemplary abbreviations include, “CV”=Co-efficient of Variation,” “LSD”=Least Significant Difference” (G/L (gram per L) AND GA/L (gram of active ingredient per L); “SC”=suspension concentrate formulation. The diluent in all treatments was water. By convention factors that are identical in all treatments (e.g. diluent and surfactant) are not listed in each treatment.\n(§2) Methods: The indicated size pots (see Tables below) are filled with a specific soil, the soil properties being indicated below. The referenced crops and weeds are planted by hand in each pot. […] The experiments include six treatments each replicated three times on each crop/weed species. At a specific time after emergence each crop and weed species was treated with ipfencarbazone plus a non-ionic surfactant (NIS). In the present Example, the surfactant employed was ENERGIC™ (non-ionic surfactant). The application timing is indicated in each of the Tables (1 or 2 leaf stage) below. Ipfencarbazone plus surfactant was diluted in water and applied at a rate equivalent to about 250 L/ha. Ipfencarbazone was applied using a track sprayer. After treatment, the pots were randomized in a greenhouse. At each assessment (indicated by “days after treatment” or DAT) the height of each plant was measured. The letters next to each mean indicate the level of statistical significance.\n(§3) Replications: 3, Untreated treatments: 1, Design: Randomized Complete Block (RCB), Treatment units: Treated ‘Plot’ experimental unit size, Dry Form. Unit: %, Treated ‘Plot’ experimental unit size Width: 1 meter, Treated ‘Plot’ experimental unit size Length: 1.4 meters, Application volume: 250 L/ha, Mix size: 0.15 liters, […]"}, "[1]": {"system": "SORVU Sorghum bicolor (Grain sorghum)", "assay": "Ipfencarbazone biostimulant effect, early post emergence foliar application, greenhouse pots, plant height: sorghum", "type": "in vivo", "settings": "for Plant HEIGHT, Mean / Plant HEIGHT, single plots: Grain sorghum DKB 590, 15 DA-A", "source_text": "as §1, §2, §3"}, "[2]": {"settings": "62.5 g ai/ha + Energic NIS 0.2 % v/v"}, "[3]": {"settings": "125 g ai/ha + Energic NIS 0.2 % v/v"}, "[4]": {"settings": "250 g ai/ha + Energic NIS 0.2 % v/v"}, "[5]": {"settings": "500 g ai/ha + Energic NIS 0.2 % v/v"}, "[6]": {"settings": "SORVU DKB 590, 62.5 g ai/ha, 15 DA-A"}, "[7]": {"settings": "SORVU DKB 590, 62.5 g ai/ha, 28 DA-A"}, "[8]": {"settings": "SORVU DKB 590, 125 g ai/ha, 15 DA-A"}},
  "note": "Where “and” joins values, the source holds several entries; their conditions need not be identical. Identical values can stand only once.",
  "data": [
    {"smiles": "CC(C)N(C(=O)n1cnn(-c2ccc(Cl)cc2Cl)c1=O)c1ccc(F)cc1F", "note": "[ARY-0572-001, ipfencarbazone]", "values": [
      {"measurement": "HEIGHT, percent of untreated check (APoC)", "setting": "ZEAMX Zea mays (Corn); 62.5 g ai/ha, 15 DA-A", "value": "(146.7%)"},
      {"measurement": "HEIGHT, treatment mean", "setting": "ZEAMX Zea mays (Corn); 62.5 g ai/ha, 15 DA-A", "value": "56.1 a cm and 56.1 cm"},
      {"measurement": "HEIGHT, single plots (replicates)", "setting": "ZEAMX Zea mays (Corn); 62.5 g ai/ha, 15 DA-A, plots 102, 205, 302", "value": "52.3 cm and 64.8 cm and 51.0 cm"},
      {"measurement": "HEIGHT, percent of untreated check (APoC)", "setting": "ZEAMX Zea mays (Corn); 62.5 g ai/ha, 28 DA-A", "value": "(175.8%)"},
      {"measurement": "HEIGHT, treatment mean", "setting": "ZEAMX Zea mays (Corn); 62.5 g ai/ha, 28 DA-A", "value": "89.4 a cm and 89.4 cm"},
      {"measurement": "HEIGHT, single plots (replicates)", "setting": "ZEAMX Zea mays (Corn); 62.5 g ai/ha, 28 DA-A, plots 102, 205, 302", "value": "71.3 cm and 106.7 cm and 90.3 cm"},
      {"measurement": "HEIGHT, percent of untreated check (APoC)", "setting": "ZEAMX Zea mays (Corn); 125 g ai/ha, 15 DA-A", "value": "(156.4%)"},
      {"measurement": "HEIGHT, treatment mean", "setting": "ZEAMX Zea mays (Corn); 125 g ai/ha, 15 DA-A", "value": "59.8 a cm and 59.8 cm"},
      {"measurement": "HEIGHT, single plots (replicates)", "setting": "ZEAMX Zea mays (Corn); 125 g ai/ha, 15 DA-A, plots 103, 206, 305", "value": "62.7 cm and 59.0 cm and 57.7 cm"},
      {"measurement": "HEIGHT, percent of untreated check (APoC)", "setting": "ZEAMX Zea mays (Corn); 125 g ai/ha, 28 DA-A", "value": "(168.8%)"},
      {"measurement": "HEIGHT, treatment mean", "setting": "ZEAMX Zea mays (Corn); 125 g ai/ha, 28 DA-A", "value": "85.9 a cm and 85.9 cm"},
      {"measurement": "HEIGHT, single plots (replicates)", "setting": "ZEAMX Zea mays (Corn); 125 g ai/ha, 28 DA-A, plots 103, 206, 305", "value": "103.0 cm and 82.0 cm and 72.7 cm"},
      {"measurement": "HEIGHT, percent of untreated check (APoC)", "setting": "ZEAMX Zea mays (Corn); 250 g ai/ha, 15 DA-A", "value": "(155.4%)"},
      {"measurement": "HEIGHT, treatment mean", "setting": "ZEAMX Zea mays (Corn); 250 g ai/ha, 15 DA-A", "value": "59.4 a cm and 59.4 cm"},
      {"measurement": "HEIGHT, single plots (replicates)", "setting": "ZEAMX Zea mays (Corn); 250 g ai/ha, 15 DA-A, plots 104, 201, 306", "value": "56.5 cm and 61.0 cm and 60.7 cm"},
      {"measurement": "HEIGHT, percent of untreated check (APoC)", "setting": "ZEAMX Zea mays (Corn); 250 g ai/ha, 28 DA-A", "value": "(208.3%)"},
      {"measurement": "HEIGHT, treatment mean", "setting": "ZEAMX Zea mays (Corn); 250 g ai/ha, 28 DA-A", "value": "106.0 a cm and 106.0 cm"},
      {"measurement": "HEIGHT, single plots (replicates)", "setting": "ZEAMX Zea mays (Corn); 250 g ai/ha, 28 DA-A, plots 104, 201, 306", "value": "108.3 cm and 104.0 cm and 105.7 cm"},
      {"measurement": "HEIGHT, percent of untreated check (APoC)", "setting": "ZEAMX Zea mays (Corn); 500 g ai/ha, 15 DA-A", "value": "(161.9%)"},
      {"measurement": "HEIGHT, treatment mean", "setting": "ZEAMX Zea mays (Corn); 500 g ai/ha, 15 DA-A", "value": "61.9 a cm and 61.9 cm"},
      {"measurement": "HEIGHT, single plots (replicates)", "setting": "ZEAMX Zea mays (Corn); 500 g ai/ha, 15 DA-A, plots 105, 202, 301", "value": "58.7 cm and 67.0 cm and 60.0 cm"},
      {"measurement": "HEIGHT, percent of untreated check (APoC)", "setting": "ZEAMX Zea mays (Corn); 500 g ai/ha, 28 DA-A", "value": "(205.9%)"},
      {"measurement": "HEIGHT, treatment mean", "setting": "ZEAMX Zea mays (Corn); 500 g ai/ha, 28 DA-A", "value": "104.8 a cm and 104.8 cm"},
      {"measurement": "HEIGHT, single plots (replicates)", "setting": "ZEAMX Zea mays (Corn); 500 g ai/ha, 28 DA-A, plots 105, 202, 301", "value": "101.7 cm and 107.7 cm and 105.0 cm"},
      {"measurement": "HEIGHT, percent of untreated check (APoC)", "setting": "ZEAMX Zea mays (Corn); 1000 g ai/ha, 15 DA-A", "value": "(98.3%)"},
      {"measurement": "HEIGHT, treatment mean", "setting": "ZEAMX Zea mays (Corn); 1000 g ai/ha, 15 DA-A", "value": "37.6 b cm and 37.6 cm"},
      {"measurement": "HEIGHT, single plots (replicates)", "setting": "ZEAMX Zea mays (Corn); 1000 g ai/ha, 15 DA-A, plots 106, 203, 304", "value": "48.7 cm and 34.7 cm and 29.3 cm"},
      {"measurement": "HEIGHT, percent of untreated check (APoC)", "setting": "ZEAMX Zea mays (Corn); 1000 g ai/ha, 28 DA-A", "value": "(117.9%)"},
      {"measurement": "HEIGHT, treatment mean", "setting": "ZEAMX Zea mays (Corn); 1000 g ai/ha, 28 DA-A", "value": "60.0 b cm and 60.0 cm"},
      {"measurement": "HEIGHT, single plots (replicates)", "setting": "ZEAMX Zea mays (Corn); 1000 g ai/ha, 28 DA-A, plots 106, 203, 304", "value": "91.7 cm and 44.0 cm and 44.3 cm"},
      {"measurement": "Plant HEIGHT, Mean", "setting": "[1]; [2]", "value": 59.9, "unit": "cm"},
      {"measurement": "Plant HEIGHT, single plots", "setting": "[1]; [2]", "value": "55.3 cm and 68.0 cm and 56.3 cm"},
      {"measurement": "Plant HEIGHT, Mean", "setting": "[1]; [3]", "value": 59.3, "unit": "cm"},
      {"measurement": "Plant HEIGHT, single plots", "setting": "[1]; [3]", "value": "68.7 cm and 55.0 cm and 54.3 cm"},
      {"measurement": "Plant HEIGHT, Mean", "setting": "[1]; [4]", "value": 61.3, "unit": "cm"},
      {"measurement": "Plant HEIGHT, single plots", "setting": "[1]; [4]", "value": "58.0 cm and 65.0 cm and 61.0 cm"},
      {"measurement": "Plant HEIGHT, Mean", "setting": "[1]; [5]", "value": 60.4, "unit": "cm"},
      {"measurement": "Plant HEIGHT, single plots", "setting": "[1]; [5]", "value": "56.0 cm and 66.3 cm and 58.8 cm"},
      {"measurement": "Plant HEIGHT, Mean", "setting": "[1]; 1000 g ai/ha + Energic NIS 0.2 % v/v", "value": 22.7, "unit": "cm"},
      {"measurement": "HEIGHT, percent of untreated check (APoC)", "setting": "[1]; [6]", "value": "(246.1%)"},
      {"measurement": "HEIGHT, treatment mean", "setting": "[1]; [6]", "value": 59.9, "unit": "a cm"},
      {"measurement": "HEIGHT, percent of untreated check (APoC)", "setting": "[1]; [7]", "value": "(296.5%)"},
      {"measurement": "HEIGHT, treatment mean", "setting": "[1]; [7]", "value": "85.0 a cm and 85.0 cm"},
      {"measurement": "HEIGHT, single plots (replicates)", "setting": "[1]; SORVU DKB 590, 62.5 g ai/ha, 28 DA-A, plots 102, 205, 302", "value": "73.0 cm and 110.7 cm and 71.3 cm"},
      {"measurement": "HEIGHT, percent of untreated check (APoC)", "setting": "[1]; [8]", "value": "(243.8%)"},
      {"measurement": "HEIGHT, treatment mean", "setting": "[1]; [8]", "value": 59.3, "unit": "a cm"},
      {"measurement": "HEIGHT, percent of untreated check (APoC)", "setting": "[1]; SORVU DKB 590, 125 g ai/ha, 28 DA-A", "value": "(277.1%)"}
    ]}
  ]
}
